In patent publication US20240294533A1, “2-(HET)ARYL-SUBSTITUTED CONDENSED HETEROCYCLE DERIVATIVES AS PEST CONTROL AGENTS” (Bayer Aktiengesellschaft, priority 2021, published 2024):

Tests used:
Diabrotica balteata = Diabrotica balteata spray test; type: in vivo; settings: Diabrotica balteata, 168 h; 100 g/ha (=32 μg/cavity), wheat grains, after 7 days; read-out: efficacy
Excerpt: Diabrotica balteata—Spray Test Solvent: 78 parts by weight of acetone • • 1.5 parts by weight of dimethylformamide Emulsifier: alkylaryl polyglycol ether An appropriate active ingredient formulation is produced by dissolving 1 part by weight of active ingredient with the stated parts by weight of solvent and making the solution up to the desired concentration with water containing an emulsifier concentration of 1000 ppm. Further test concentrations are produced by diluting the formulation with emulsifier-containing water. Pre-swollen wheat grains (Triticum aestivum) are incubated in a multiwell plate filled with agar and a little water for one day (5 seed grains per cavity). The germinated wheat grains are sprayed with an active ingredient formulation of the desired concentration. Subsequently, each cavity is infected with 10-20 beetle larvae of Diabrotica balteata. After 7 days, efficacy in % is determined. 100% means that all wheat plants have grown as in the untreated, uninfected control; 0% means that no wheat plant has grown.

Tetranychus urticae = Tetranychus urticae spray test, OP-resistant; type: in vivo; settings: 500 g/ha, bean leaf discs, after 6 days
Excerpt: Tetranychus urticae—Spray Test, OP-Resistant
Solvent: 78.0 parts by weight of acetone • • 1.5 parts by weight of dimethylformamide
Emulsifier: alkylaryl polyglycol ether
An appropriate active ingredient formulation is produced by dissolving 1 part by weight of active ingredient with the stated parts by weight of solvent and making the solution up to the desired concentration with water containing an emulsifier concentration of 1000 ppm. Further test concentrations are produced by diluting the formulation with emulsifier-containing water.
Discs of bean leaves (Phaseolus vulgaris) infested with all stages of the greenhouse red spider mite (Tetranychus urticae) are sprayed with an active ingredient formulation of the desired concentration.
After 6 days, efficacy in % is determined. 100% means that all the spider mites have been killed; 0% means that no spider mites have been killed.

Nezara viridula = Nezara viridula spray test (plants sprayed, then infected); type: in vivo; settings: 500 g/ha, barley plants, after 4 days
Excerpt: Nezara viridula—Spray Test Solvent: 78.0 parts by weight of acetone • • 1.5 parts by weight of dimethylformamide Emulsifier: alkylaryl polyglycol ether An appropriate active ingredient formulation is produced by dissolving 1 part by weight of active ingredient with the stated parts by weight of solvent and making the solution up to the desired concentration with water containing an emulsifier concentration of 1000 ppm. Further test concentrations are produced by diluting the formulation with emulsifier-containing water. Barley plants (Hordeum vulgare) are sprayed with an active ingredient formulation of the desired concentration and are infected with larvae of the Southern green shield bug (Nezara viridula). After 4 days, efficacy in % is determined. 100% means that all of the shield bugs have been killed; 0% means that none of the shield bugs have been killed.

Spodoptera frugiperda [1] = experiment: Spodoptera frugiperda spray test (maize leaf discs); type: in vivo; settings: Spodoptera frugiperda, foliar, 168 h, after 7 days, read-out: efficacy
Excerpt: Spodoptera Frusiperda—Spray Test Solvent: 78.0 parts by weight of acetone • • 1.5 parts by weight of dimethylformamide Emulsifier: alkylaryl polyglycol ether An appropriate active ingredient formulation is produced by dissolving 1 part by weight of active ingredient with the stated parts by weight of solvent and making the solution up to the desired concentration with water containing an emulsifier concentration of 1000 ppm. Further test concentrations are produced by diluting the formulation with emulsifier-containing water. Leaf discs of maize (Zea mays) are sprayed with an active ingredient formulation of the desired concentration and, after drying, populated with caterpillars of the fall armyworm (Spodoptera frugiperda). After 7 days, efficacy in % is determined. 100% means that all the caterpillars have been killed; 0% means that no caterpillar has been killed.

Myzus persicae = Myzus persicae spray test; type: in vivo; settings: 20 ppm, bell pepper plants, after 6 days
Excerpt: Myzus persicae—Spray Test Solvent: 14 parts by weight of dimethylformamide Emulsifier: alkylaryl polyglycol ether An appropriate active ingredient formulation is produced by dissolving 1 part by weight of active ingredient with the stated parts by weight of solvent and making the solution up to the desired concentration with water containing an emulsifier concentration of 1000 ppm. Further test concentrations are produced by diluting the formulation with emulsifier-containing water. If the addition of ammonium salts or/and penetrants is required, these are each added in a concentration of 1000 ppm to the formulation solution. Bell pepper plants (Capsicum annuum) severely infested with the green peach aphid (Myzus persicae) are treated by spraying with the active ingredient formulation in the desired concentration. After 6 days, the kill rate in % is determined. 100% means that all of the aphids have been killed; 0% means that none of the aphids have been killed.

Meloidogyne incognita = Meloidogyne incognita test; type: in vivo; settings: Meloidogyne incognita, 336 h, lettuce, gall formation after 14 days, read-out: nematicidal efficacy
Excerpt: Meloidogyne incognita Test Solvent: 125.0 parts by weight of acetone An appropriate active ingredient formulation is produced by mixing 1 part by weight of active ingredient with the stated amount of solvent and diluting the concentrate to the desired concentration with water. Vessels are filled with sand, active ingredient solution, an egg/larvae suspension of the southern root-knot nematode (Meloidogyne incognita) and lettuce seeds. The lettuce seeds germinate and the plants develop. The galls develop on the roots. After 14 days, the nematicidal efficacy in % is determined by the formation of galls. 100% means that no galls were found; 0% means that the number of galls on the treated plants corresponds to the untreated control.

Spodoptera frugiperda [2] = experiment: Spodoptera frugiperda spray test (cotton leaves); type: in vivo; settings: 4 ppm, after 7 days
Excerpt: Spodoptera Frustiperda—Spray Test Solvent: 14 parts by weight of dimethylformamide Emulsifier: alkylaryl polyglycol ether An appropriate active ingredient formulation is produced by dissolving 1 part by weight of active ingredient with the stated parts by weight of solvent and making the solution up to the desired concentration with water containing an emulsifier concentration of 1000 ppm. Further test concentrations are produced by diluting the formulation with emulsifier-containing water. If the addition of ammonium salts or/and penetrants is required, these are each added in a concentration of 1000 ppm to the formulation solution. Cotton leaves (Gossypium hirsutum) are sprayed with an active ingredient formulation of the desired concentration and populated with caterpillars of the armyworm (Spodoptera frugiperda). After 7 days, the kill in % is determined. 100% means that all the caterpillars have been killed; 0% means that none of the caterpillars have been killed.

[3] = log P by HPLC on reversed-phase column (C18); type: physicochemical; settings: LC-UV, neutral range, ammonium acetate/acetonitrile, read-out: log P (neutral)
Procedure: log P Values The log P values were determined according to EEC Directive 79/831 Annex V.A8 by HPLC (high-performance liquid chromatography) on a reversed-phase column (C18) using the following methods: ^[a] […] Calibration was carried out using straight-chain alkan-2-ones (having 3 to 16 carbon atoms) with known log P values. The values between successive alkanones are determined by linear regression.

chromatographic logP [3]	SMILES	pest or weed control at 100 g/ha (Diabrotica balteata) [%]	efficacy (Tetranychus urticae) [%]	efficacy (Nezara viridula) [%]	pest or weed control at 100 g/ha (Spodoptera frugiperda [1]) [%]	efficacy (kill rate) (Myzus persicae) [%]	pest or weed control at 20 ppm (Meloidogyne incognita) [%]	efficacy (kill) (Spodoptera frugiperda [2]) [%]
	CCS(=O)(=O)c1ccc(-n2ncn(-c3ccc(C(=O)OC)cc3)c2=O)nc1-c1nc2cc(C(F)(F)C(F)(F)F)cnc2n1C [Example I-03]	100	90					
	CCS(=O)(=O)c1ccc(-n2ncn(-c3ccc(C#N)cc3)c2=O)nc1-c1nc2cc(C(F)(F)C(F)(F)F)nnc2n1C [Example I-06]	100		100	100	95		
3.53	CCS(=O)(=O)c1ccc(-n2ncn(-c3ccc(F)cc3)c2=O)nc1-c1nc2cc(C(F)(F)C(F)(F)F)cnc2n1C [Example I-02, 2-[5-Ethylsulfonyl-6-[3-methyl-6-(1,1,2,2,2-pentafluoroethyl)imidazo[4,5-b]pyridin-2-yl]-2-pyridyl]-4-(4-fluorophenyl)-1,2,4-triazol-3-one]	100		100			100	100
